Source: patent US20110009489A1, “COSMETIC COMPOSITION COMPRISING VITAMIN U AS ACTIVE INGREDIENT FOR HEALING WOUNDS AND REDUCING WRINKLES” (CUSKIN CO., LTD., priority 2008, published 2011)

Assays:
[1] = tested on: human epidermal keratinocytes; conditions: vitamin U 10^−2, 10^−3, 10^−4 M, 1/10 growth factor, scratch; vs control not treated with vitamin U
Description: The following experiment was performed to investigate if vitamin U could increase the movement of human epidermal keratinocytes (hereinafter hEK) in vitro. The basic culture medium was obtained fromDefined Keratinocyte-SFM (Gibco, USA) with Defined Keratinocyte-SFM Growth supplement and growth factors. For the experiment, such an amount of 1/10 growth factor and vitamin U were added that the final concentrations of vitamin U should be 10^−2, 10^−3, and 10^−4 M. In the meantime, vitamin-free medium containing 1/10 growth factor was used for the control.
Human keratinocytes were cultured in a 6-well culture dish until the cells were grown at least 90% confluent. The cells were scratched out by using 2 mm micro tip. The fallen-off cells were washed out with PBS, followed by culture in another experimental medium.

[2] = tested on: human dermal fibroblasts; conditions: vitamin U 10^−2 or 10^−3 M, DMEM with 1% FBS, scratch; vs control not treated with vitamin
Description: The medium used for the wound healing experiment was obtained from DMEM with 1% FBS. Such an amount of vitamin U was added that the final vitamin U concentration should be 10^−2 or 10^−3 M. In the meantime, vitamin-free medium containing 1% FBS was used for the control.
Human fibroblasts were cultured in a 6-well culture dish until the cells were grown at least 90% confluent. The cells were scratched out by using 2 mm micro tip. The fallen-off cells were washed out with PBS, followed by culture in another experimental medium. Then, it was observed by photograph how many cells migrate into the room between scratches.

[3] = tested on: gastric mucosa; conditions: pig, vitamin U administered; cited from earlier work
[4] = tested on: gastric mucosa; conditions: rabbit, vitamin U administered; cited from earlier work
[5] = tested on: collagenase mRNA; conditions: mouse, in vivo
Description: (§1) An experiment on Inhibitory effect on collagenase of the cosmetic composition containing vitamin U of the present invention was carried out. The experiment was carried for 4 weeks with the Atrichia mice divided into two groups, each of which is composed of 10 mice. Vitamin U containing cosmetic formula, prepared in cream with 10% vitamin U, was applied onto the back skin of the experimental group mouse every day. In the meantime, vitamin U-free ordinary formula was applied on the control. 4 weeks later, back skin was picked from both groups. RNA was extracted from the skin tissues, followed by real-time PCR to investigate the transcription level of collagenase mRNA (FIG. 8).

[6] = tested on: collagen; conditions: mouse, in vivo
Description: as §1

CS.CSCCC(N)C(=O)O.Cl (racemic) [vitamin U, DL-methionine methylsulfonium chloride]
migration of keratinocytes [1]: much more increased
migration of fibroblasts [2]: much more increased
ulcer of gastric mucosa [3]: suppressed
mucin secretion of gastric mucosa [4]: increased
collagenase mRNA transcription [5]: significant inhibition
collagen (Western blotting) [6]: increase of collagen
